Laboratory results: patent US10077248B2, “Form of imazapyr, a process for its preparation and use the same” (priority 2015, dated 2018)

Type: physicochemical
Description: Samples prepared in Examples 4, and 5 were stored at 54° C. for 1 month, 3 months and 6 months. The procedures are followed according to CIPAC MT 46.3. The concentration of imazapyr was tested at the end of each storage time by high pressure liquid chromatography (HPLC). The aggregation was measured by observation. The original concentration of imazapyr in each formulation was 25%.

| Structure (SMILES) | storage stability / tendency of aggregation (in words) |
| --- | --- |
| CC(C)C1(C)N=C(c2ncccc2C(=O)O)NC1=O (racemic) [crystalline modification I of imazapyr, 2-[(RS)-4-isopropyl-4-methyl-5-oxo-2-imidazolin-2-yl]nicotinic acid] | significant increase in its storage stability |
| CC(C)C1(C)N=C(c2ncccc2C(=O)O)NC1=O (racemic) [imazapyr in amorphous state, 2-[(RS)-4-isopropyl-4-methyl-5-oxo-2-imidazolin-2-yl]nicotinic acid] | high tendency of aggregation after a long storage time |
